Reference: PMC12028158, “Synthesis and In Vitro Evaluation of the Anticancer Effect of Novel Phosphonium Vindoline Derivatives” (International Journal of Molecular Sciences, 2025)
Like-named read-outs stand apart in the source and are kept apart here.

Legend:
Assay type in all cases: cell-based
HL-60(TB) = assay: NCI60 five-dose screen; settings: Homo sapiens
A549/ATCC = assay: NCI60 five-dose screen; settings: Homo sapiens
EKVX = assay: NCI60 five-dose screen; settings: Homo sapiens
HOP-62 = assay: NCI60 five-dose screen; settings: Homo sapiens
NCI-H23 [1] = assay: NCI60 five-dose screen; settings: Homo sapiens
HCT-15 = assay: NCI60 five-dose screen; settings: Homo sapiens
KM12 = assay: NCI60 five-dose screen; settings: Homo sapiens
SF-539 = assay: NCI60 five-dose screen; settings: Homo sapiens
SNB-19 [2] = assay: NCI60 five-dose screen; settings: Homo sapiens
LOX IMVI = assay: NCI60 five-dose screen; settings: Homo sapiens
MALME-3M [3] = assay: NCI60 five-dose screen; settings: Homo sapiens
SK-MEL-28 [4] = assay: NCI60 five-dose screen; settings: Homo sapiens
SK-MEL-5 [5] = assay: NCI60 five-dose screen; settings: Homo sapiens
UACC-257 = assay: NCI60 five-dose screen; settings: Homo sapiens
OVCAR-3 = assay: NCI60 five-dose screen; settings: Homo sapiens
OVCAR-8 [6] = assay: NCI60 five-dose screen; settings: Homo sapiens
MCF7 [7] = assay: NCI60 five-dose screen; settings: Homo sapiens
T-47D = assay: NCI60 five-dose screen; settings: Homo sapiens, T47D
MDA-MB-468 = assay: NCI60 five-dose screen; settings: Homo sapiens
Leukemia panel = assay: NCI60 five-dose screen, panel mean; settings: Homo sapiens
Ovarian Cancer panel = assay: NCI60 five-dose screen, panel mean; settings: Homo sapiens
Renal Cancer panel = assay: NCI60 five-dose screen, panel mean; settings: Homo sapiens
MOLT-4 = assay: NCI60 one-dose screen; settings: Homo sapiens
RPMI-8226 = assay: NCI60 one-dose screen; settings: Homo sapiens
SR = assay: NCI60 one-dose screen; settings: Homo sapiens, read-out: Growth percent
HOP-92 = assay: NCI60 one-dose screen; settings: Homo sapiens
NCI-H23 [8] = assay: NCI60 one-dose screen; settings: Homo sapiens
NCI-H322M = assay: NCI60 one-dose screen; settings: Homo sapiens, read-out: Growth percent
NCI-H460 = assay: NCI60 one-dose screen; settings: Homo sapiens
COLO 205 = assay: NCI60 one-dose screen; settings: Homo sapiens
SF-268 = assay: NCI60 one-dose screen; settings: Homo sapiens
SF-295 = assay: NCI60 one-dose screen; settings: Homo sapiens
SNB-19 [9] = assay: NCI60 one-dose screen; settings: Homo sapiens
MALME-3M [10] = assay: NCI60 one-dose screen; settings: Homo sapiens, read-out: Growth percent
M14 = assay: NCI60 one-dose screen; settings: Homo sapiens
MDA-MB-435 = assay: NCI60 one-dose screen; settings: Homo sapiens
SK-MEL-2 = assay: NCI60 one-dose screen; settings: Homo sapiens
SK-MEL-28 [11] = assay: NCI60 one-dose screen; settings: Homo sapiens
SK-MEL-5 [12] = assay: NCI60 one-dose screen; settings: Homo sapiens
UACC-62 = assay: NCI60 one-dose screen; settings: Homo sapiens
IGROV1 = assay: NCI60 one-dose screen; settings: Homo sapiens
OVCAR-8 [13] = assay: NCI60 one-dose screen; settings: Homo sapiens
786-0 = assay: NCI60 one-dose screen; settings: Homo sapiens
SN12C = assay: NCI60 one-dose screen; settings: Homo sapiens, read-out: Growth percent
MCF7 [14] = assay: NCI60 one-dose screen; settings: Homo sapiens
HS 578T = assay: NCI60 one-dose screen; settings: Homo sapiens, read-out: Growth percent

## CC[C@]12C=CCN3CC[C@@]4(c5ccc(OC)cc5N(C)[C@H]4[C@@](O)(C(=O)OC)[C@@H]1OC(=O)CCC[P+](C1CCCCC1)(C1CCCCC1)C1CCCCC1)[C@@H]32 [9d]
HL-60(TB); HL-60
  GI50: 322 nM
A549/ATCC; A549
  GI50: 3460 nM
EKVX
  GI50: 3090 nM
HOP-62; HOP-62
  GI50: 3680 nM
NCI-H23 [1]; NCI-H23
  GI50: 2310 nM
HCT-15; HCT-15
  GI50: 15300 nM
KM12; KM12
  GI50: 1630 nM
SF-539; SF-539
  GI50: 2940 nM
SNB-19 [2]; SNB-19
  GI50: 2220 nM
LOX IMVI
  GI50: 2880 nM
MALME-3M [3]; Malme-3M
  GI50: 1460 nM
SK-MEL-28 [4]; SK-MEL-28
  GI50: 1080 nM
SK-MEL-5 [5]; SK-MEL-5
  GI50: 1760 nM
UACC-257; UACC-257
  GI50: 1260 nM
OVCAR-3; OVCAR-3
  GI50: 1740 nM
OVCAR-8 [6]; OVCAR-8
  GI50: 2970 nM
MCF7 [7]; MCF7
  GI50: 1190 nM
T-47D
  GI50: 1320 nM
MDA-MB-468; MDA-MB-468
  GI50: 313 nM
Leukemia panel; read-out: Mean GI50
  GI50: 1200 nM
Ovarian Cancer panel; read-out: Mean GI50
  GI50: 7120 nM
Renal Cancer panel; read-out: Mean GI50
  GI50: 7930 nM
MOLT-4; MOLT-4, read-out: Growth percent
  activity at 10 µM: 2.35%
RPMI-8226; RPMI-8226, read-out: Growth percent
  activity at 10 µM: -43.5%
SR
  activity at 10 µM: 29.1%
HOP-92; HOP-92, read-out: Growth percent
  activity at 10 µM: -43.8%
NCI-H23 [8]; NCI-H23, read-out: Growth percent
  activity at 10 µM: -4.73%
NCI-H322M
  activity at 10 µM: 24.5%
NCI-H460; NCI-H460, read-out: Growth percent
  activity at 10 µM: 4.64%
COLO 205; COLO 205, read-out: Growth percent
  activity at 10 µM: -63.6%
SF-268; SF-268, read-out: Growth percent
  activity at 10 µM: -54.1%
SF-295; SF-295, read-out: Growth percent
  activity at 10 µM: -13.6%
SNB-19 [9]; SNB-19, read-out: Growth percent
  activity at 10 µM: -60%
MALME-3M [10]; Malme-3M
  activity at 10 µM: -96.1%
M14; M14, read-out: Growth percent
  activity at 10 µM: -78%
MDA-MB-435; MDA-MB-435, read-out: Growth percent
  activity at 10 µM: -80.1%
SK-MEL-2; SK-MEL-2, read-out: Growth percent
  activity at 10 µM: -84.9%
SK-MEL-28 [11]; SK-MEL-28, read-out: Growth percent
  activity at 10 µM: -85.9%
SK-MEL-5 [12]; SK-MEL-5, read-out: Growth percent
  activity at 10 µM: -98.4%
UACC-62; UACC-62, read-out: Growth percent
  activity at 10 µM: -97.3%
IGROV1; IGROV-1, read-out: Growth percent
  activity at 10 µM: -86%
OVCAR-8 [13]; OVCAR-8, read-out: Growth percent
  activity at 10 µM: 1.19%
786-0; 786-0, read-out: Growth percent
  activity at 10 µM: -16.2%
SN12C
  activity at 10 µM: -40.5%
MCF7 [14]; MCF7, read-out: Growth percent
  activity at 10 µM: -72.2%
HS 578T; Hs-578T
  activity at 10 µM: -33%

## CCC12C=CCN3CCC4(c5ccc(OC)cc5N(C)C4C(O)(C(=O)OC)C1OC(=O)c1ccc(C[P+](c4ccccc4)(c4ccccc4)c4ccccc4)cc1)C32 (centres unmarked) [compound 12]
HL-60(TB); HL-60, HL-60(TB), Leukemia, read-out: GI50
  GI50: 297 nM
A549/ATCC; A549/ATCC, Non-small Cell Lung Cancer, read-out: GI50
  GI50: 2090 nM
EKVX; Non-small Cell Lung Cancer, read-out: GI50
  GI50: 2030 nM
HOP-62; HOP-62, Non-small Cell Lung Cancer, read-out: GI50
  GI50: 2670 nM
NCI-H23 [1]; NCI-H23, Non-small Cell Lung Cancer, read-out: GI50
  GI50: 2810 nM
HCT-15; HCT-15, Colon Cancer, read-out: GI50
  GI50: 27400 nM
KM12; KM12, KM12, Colon Cancer, read-out: GI50
  GI50: 514 nM
SF-539; SF-539, CNS Cancer, read-out: GI50
  GI50: 1260 nM
SNB-19 [2]; SNB-19, SNB-19, CNS Cancer, read-out: GI50
  GI50: 725 nM
LOX IMVI; Melanoma, read-out: GI50
  GI50: 1820 nM
MALME-3M [3]; MALME-3M, Melanoma, read-out: GI50
  GI50: 652 nM
SK-MEL-28 [4]; SK-MEL-28, Melanoma, read-out: GI50
  GI50: 520 nM
SK-MEL-5 [5]; SK-MEL-5, Melanoma, read-out: GI50
  GI50: 1210 nM
UACC-257; UACC-257, UACC-257, Melanoma, read-out: GI50
  GI50: 918 nM
OVCAR-3; OVCAR-3, Ovarian Cancer, read-out: GI50
  GI50: 704 nM
OVCAR-8 [6]; OVCAR-8, Ovarian Cancer, read-out: GI50
  GI50: 3180 nM
MCF7 [7]; MCF7, MCF7, Breast Cancer, read-out: GI50
  GI50: 442 nM
T-47D; T-47D, Breast Cancer, read-out: GI50
  GI50: 525 nM
MDA-MB-468; MDA-MB-468, MDA-MB-468, Breast Cancer, read-out: GI50
  GI50: 186 nM
Leukemia panel; mean over Leukemia panel, read-out: GI50 Mean
  GI50: 770 nM
Ovarian Cancer panel; mean over Ovarian Cancer panel, read-out: GI50 Mean
  GI50: 15800 nM
Renal Cancer panel; mean over Renal Cancer panel, read-out: GI50 Mean
  GI50: 8300 nM
MOLT-4; MOLT-4, 10 μM, one-dose, read-out: Growth percent
  activity at 10 µM: -53%
RPMI-8226; RPMI-8226, 10 μM, one-dose, read-out: Growth percent
  activity at 10 µM: -50.8%
SR; 10 μM, one-dose
  activity at 10 µM: -58.3%
HOP-92; HOP-92, 10 μM, one-dose, read-out: Growth percent
  activity at 10 µM: -73.4%
NCI-H23 [8]; NCI-H23, 10 μM, one-dose, read-out: Growth percent
  activity at 10 µM: 0.48%
NCI-H322M; 10 μM, one-dose
  activity at 10 µM: 19.9%
NCI-H460; NCI-H460, 10 μM, one-dose, read-out: Growth percent
  activity at 10 µM: -62.8%
COLO 205; COLO 205, 10 μM, one-dose, read-out: Growth percent
  activity at 10 µM: -87.2%
SF-268; SF-268, 10 μM, one-dose, read-out: Growth percent
  activity at 10 µM: -26.1%
SF-295; SF-295, 10 μM, one-dose, read-out: Growth percent
  activity at 10 µM: 5.9%
SNB-19 [9]; SNB-19, 10 μM, one-dose, read-out: Growth percent
  activity at 10 µM: -72.2%
MALME-3M [10]; MALME-3M, 10 μM, one-dose
  activity at 10 µM: -95.5%
M14; M14, 10 μM, one-dose, read-out: Growth percent
  activity at 10 µM: -73.9%
MDA-MB-435; MDA-MB-435, 10 μM, one-dose, read-out: Growth percent
  activity at 10 µM: -88.8%
SK-MEL-2; SK-MEL-2, 10 μM, one-dose, read-out: Growth percent
  activity at 10 µM: -77.8%
SK-MEL-28 [11]; SK-MEL-28, 10 μM, one-dose, read-out: Growth percent
  activity at 10 µM: -92.4%
SK-MEL-5 [12]; SK-MEL-5, 10 μM, one-dose, read-out: Growth percent
  activity at 10 µM: -98.5%
UACC-62; UACC-62, 10 μM, one-dose, read-out: Growth percent
  activity at 10 µM: -86.9%
IGROV1; IGROV-1, IGROV1, 10 μM, one-dose, read-out: Growth percent
  activity at 10 µM: -69.6%
OVCAR-8 [13]; OVCAR-8, 10 μM, one-dose, read-out: Growth percent
  activity at 10 µM: -18.5%
786-0; 786-0, 10 μM, one-dose, read-out: Growth percent
  activity at 10 µM: -47.8%
SN12C; 10 μM, one-dose
  activity at 10 µM: -46.5%
MCF7 [14]; MCF7, 10 μM, one-dose, read-out: Growth percent
  activity at 10 µM: -52.8%
HS 578T; HS 578T, 10 μM, one-dose
  activity at 10 µM: -36.6%
